Where “and” joins values, the source holds several entries; their conditions need not be identical. Equal entries are not always repeated. Entries after “also recorded” stand apart in the source; their conditions may differ. Where two headings read alike, the source gives them in different places.
Tests used:
CYP1A2 [1] = biological target: T1, CYP1A2 (Homo sapiens, UniProt P05177); experiment: Time-dependent inhibition (IC50 shift) of CYP1A2 in human liver microsomes; assay type: in vitro ADME; conditions: risdiplam up to 12.5 μM
T1 sequence (P05177 1-516): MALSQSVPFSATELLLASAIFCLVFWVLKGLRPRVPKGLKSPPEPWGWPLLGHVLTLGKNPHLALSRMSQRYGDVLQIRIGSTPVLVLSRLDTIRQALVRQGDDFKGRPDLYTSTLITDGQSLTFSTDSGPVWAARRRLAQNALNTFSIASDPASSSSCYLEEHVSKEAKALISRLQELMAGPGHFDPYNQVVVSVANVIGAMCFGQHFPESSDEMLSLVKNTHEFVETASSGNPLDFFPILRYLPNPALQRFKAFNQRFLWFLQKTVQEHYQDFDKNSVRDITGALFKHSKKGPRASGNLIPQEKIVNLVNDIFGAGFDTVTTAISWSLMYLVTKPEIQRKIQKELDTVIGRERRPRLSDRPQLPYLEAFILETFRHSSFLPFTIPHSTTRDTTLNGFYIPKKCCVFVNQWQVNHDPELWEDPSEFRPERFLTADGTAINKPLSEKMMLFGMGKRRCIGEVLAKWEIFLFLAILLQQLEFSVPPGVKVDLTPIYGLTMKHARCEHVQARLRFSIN
Protocol: (§1) Donors CMV negative for serology are unm
(§2) All incubations were conducted in duplicate.
(§3) % remaining=(C+I/C^−I)*100

CYP2C8 [2] = biological target: T2, CYP2C8 (Homo sapiens, UniProt P10632); experiment: Time-dependent inhibition (IC50 shift) of CYP2C8 in human liver microsomes; conditions: risdiplam up to 12.5 μM
T2 sequence (P10632 1-490): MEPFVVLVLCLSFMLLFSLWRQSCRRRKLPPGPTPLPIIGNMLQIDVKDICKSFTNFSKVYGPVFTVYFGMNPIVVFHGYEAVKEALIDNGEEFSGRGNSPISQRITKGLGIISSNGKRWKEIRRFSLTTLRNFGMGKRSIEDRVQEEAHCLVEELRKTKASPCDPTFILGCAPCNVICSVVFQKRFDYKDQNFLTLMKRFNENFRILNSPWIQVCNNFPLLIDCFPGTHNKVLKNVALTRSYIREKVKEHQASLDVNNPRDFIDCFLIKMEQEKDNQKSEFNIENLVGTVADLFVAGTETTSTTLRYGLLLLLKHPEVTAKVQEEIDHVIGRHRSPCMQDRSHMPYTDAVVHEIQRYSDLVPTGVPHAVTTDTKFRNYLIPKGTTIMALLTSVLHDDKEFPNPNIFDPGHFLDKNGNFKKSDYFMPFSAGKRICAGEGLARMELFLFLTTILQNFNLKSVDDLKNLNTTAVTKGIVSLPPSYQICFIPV
Protocol: as §1, §2, §3

CYP2D6 = CYP2D6 (Homo sapiens, UniProt P10635)
Chain of CYP2D6 (P10635 whole entry): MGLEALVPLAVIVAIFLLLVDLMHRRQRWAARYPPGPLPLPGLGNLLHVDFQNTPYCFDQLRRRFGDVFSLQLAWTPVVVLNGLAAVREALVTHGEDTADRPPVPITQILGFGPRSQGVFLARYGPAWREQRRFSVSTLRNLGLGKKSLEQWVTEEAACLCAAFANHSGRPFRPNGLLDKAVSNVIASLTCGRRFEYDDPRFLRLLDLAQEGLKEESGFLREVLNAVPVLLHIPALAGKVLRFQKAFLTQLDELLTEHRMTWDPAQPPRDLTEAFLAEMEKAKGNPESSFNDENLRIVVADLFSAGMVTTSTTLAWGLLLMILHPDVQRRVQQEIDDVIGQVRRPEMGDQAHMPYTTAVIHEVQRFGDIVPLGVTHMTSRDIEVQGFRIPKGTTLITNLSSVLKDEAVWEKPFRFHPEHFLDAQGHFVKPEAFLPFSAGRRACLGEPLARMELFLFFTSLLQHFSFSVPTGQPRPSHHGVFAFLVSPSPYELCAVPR

CYP2C8 [3] = biological target: T2, CYP2C8; experiment: in vitro; conditions: pooled human liver microsomes, pH 7.4, probe amodiaquine
CYP2C9 = CYP2C9 (Homo sapiens, UniProt P11712); experiment: biochemical
Chain of CYP2C9 (P11712 whole entry): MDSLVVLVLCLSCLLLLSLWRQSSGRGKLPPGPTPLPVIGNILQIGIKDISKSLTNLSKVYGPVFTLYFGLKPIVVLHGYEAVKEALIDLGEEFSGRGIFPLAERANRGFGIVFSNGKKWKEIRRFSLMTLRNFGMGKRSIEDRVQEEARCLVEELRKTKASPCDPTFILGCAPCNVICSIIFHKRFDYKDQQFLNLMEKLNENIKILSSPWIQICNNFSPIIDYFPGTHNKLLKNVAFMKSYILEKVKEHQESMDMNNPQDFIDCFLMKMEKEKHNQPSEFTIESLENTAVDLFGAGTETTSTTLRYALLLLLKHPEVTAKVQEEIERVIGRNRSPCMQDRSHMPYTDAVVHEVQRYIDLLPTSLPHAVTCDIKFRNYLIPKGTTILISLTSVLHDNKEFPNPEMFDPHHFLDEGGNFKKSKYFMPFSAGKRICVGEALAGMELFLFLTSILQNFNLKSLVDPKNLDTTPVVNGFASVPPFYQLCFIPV

CYP2C19 [4] = biological target: T3, CYP2C19 (Homo sapiens, UniProt P33261); experiment: biochemical
T3 sequence (P33261 whole entry): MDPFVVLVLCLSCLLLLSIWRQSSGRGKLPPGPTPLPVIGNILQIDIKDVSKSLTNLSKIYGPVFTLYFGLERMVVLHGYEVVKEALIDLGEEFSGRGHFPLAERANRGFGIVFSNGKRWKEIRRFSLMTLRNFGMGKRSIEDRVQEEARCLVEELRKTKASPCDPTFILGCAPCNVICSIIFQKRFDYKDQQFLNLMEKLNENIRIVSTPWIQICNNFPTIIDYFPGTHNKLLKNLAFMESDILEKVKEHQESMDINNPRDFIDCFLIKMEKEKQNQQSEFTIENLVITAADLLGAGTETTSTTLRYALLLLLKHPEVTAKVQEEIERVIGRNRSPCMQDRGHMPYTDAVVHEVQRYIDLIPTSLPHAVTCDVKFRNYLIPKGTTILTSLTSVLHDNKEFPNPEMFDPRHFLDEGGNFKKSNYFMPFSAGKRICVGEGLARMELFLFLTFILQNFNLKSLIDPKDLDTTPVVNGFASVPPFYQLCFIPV

CYP2B6 = biological target: T4, CYP2B6 (Homo sapiens, UniProt P20813); experiment: Direct inhibition of CYP2B6 (bupropion) in human liver microsomes
T4 sequence (P20813 1-491): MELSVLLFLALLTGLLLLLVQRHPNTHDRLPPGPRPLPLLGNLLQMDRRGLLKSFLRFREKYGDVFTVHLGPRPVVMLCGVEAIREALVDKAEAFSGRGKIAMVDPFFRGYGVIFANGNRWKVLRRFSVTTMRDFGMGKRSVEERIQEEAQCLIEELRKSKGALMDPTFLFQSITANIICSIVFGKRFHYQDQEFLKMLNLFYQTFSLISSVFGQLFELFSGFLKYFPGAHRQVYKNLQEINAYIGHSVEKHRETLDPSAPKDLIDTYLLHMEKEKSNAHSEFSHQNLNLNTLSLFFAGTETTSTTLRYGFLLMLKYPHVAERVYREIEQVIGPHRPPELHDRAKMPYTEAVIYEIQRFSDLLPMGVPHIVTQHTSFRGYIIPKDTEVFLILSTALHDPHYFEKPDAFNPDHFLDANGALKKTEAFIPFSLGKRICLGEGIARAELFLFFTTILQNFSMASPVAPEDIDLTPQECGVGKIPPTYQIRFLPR

CYP1A2 [5] = biological target: T1, CYP1A2; experiment: Direct inhibition of CYP1A2 (phenacetin) in human liver microsomes
CYP2C8 [6] = biological target: T2, CYP2C8; experiment: Direct inhibition of CYP2C8 (amodiaquine) in human liver microsomes
CYP2C19 [7] = biological target: T3, CYP2C19; experiment: Time-dependent inhibition (IC50 shift) of CYP2C19 in human liver microsomes; conditions: risdiplam up to 12.5 μM
CYP3A4 = CYP3A4 (Homo sapiens, UniProt P08684); experiment: Direct inhibition of CYP3A4 (midazolam and testosterone) in human liver microsomes; assay type: in vitro ADME; set-up: rows headed: % Control activity at; substrate Midazolam; concentration not given; duplicates; % Control activity at; substrate Testosterone; % Remaining; other: direct; CYP3A4-Midazolam Activity; risdiplam 0.20 μM; risdiplam 0.10 μM; dupl; conditions: for % Remaining / maximal inhibition: direct; for maximal inhibition: risdiplam tested up to 12.5 μM; for activity: pH 7.4, direct inhibition, read-out: % Control activity at
Chain of CYP3A4 (P08684 2-503): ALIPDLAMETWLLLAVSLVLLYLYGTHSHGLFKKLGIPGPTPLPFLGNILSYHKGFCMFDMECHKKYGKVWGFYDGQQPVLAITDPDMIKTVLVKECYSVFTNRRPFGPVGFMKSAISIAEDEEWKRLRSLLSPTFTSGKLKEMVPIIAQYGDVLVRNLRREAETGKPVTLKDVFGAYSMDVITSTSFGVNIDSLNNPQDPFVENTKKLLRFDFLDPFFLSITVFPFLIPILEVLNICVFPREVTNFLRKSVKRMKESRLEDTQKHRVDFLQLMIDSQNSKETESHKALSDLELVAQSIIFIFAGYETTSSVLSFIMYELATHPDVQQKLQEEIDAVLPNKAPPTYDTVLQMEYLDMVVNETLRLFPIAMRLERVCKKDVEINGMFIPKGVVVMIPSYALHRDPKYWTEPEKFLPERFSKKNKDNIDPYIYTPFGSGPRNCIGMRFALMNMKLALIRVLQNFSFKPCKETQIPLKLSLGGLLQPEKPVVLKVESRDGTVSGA

Cc1cn2nc(-c3cc(=O)n4cc(N5CCNC6(CC6)C5)ccc4n3)cc(C)c2n1 [risdiplam, 7-(4,7-diazaspiro[2.5]octan-7-yl)-2-(2,8-dimethylimidazo[1,2-b]pyridazin-6-yl)pyrido[1,2-a]pyrimidin-4-one]
time-dependent inhibition (in words) (CYP1A2 [1]): did not show any significant reversible or time-dependent inhibition; also recorded: No significant reversible or time-dependent inhibition; also recorded: No significant time-dependent inhibition; also recorded: low potential to cause direct or time-dependent inhibition
time-dependent inhibition (in words) (CYP2C8 [2]): did not show any significant reversible or time-dependent inhibition; also recorded: No significant reversible or time-dependent inhibition; also recorded: No significant time-dependent inhibition; also recorded: low potential to cause direct or time-dependent inhibition
% Control activity at (CYP2D6; direct inhibition, substrate Dextromethorphan, concentration not given, duplicates): 95%
reversible (direct) inhibition (in words) (CYP2D6; risdiplam up to 12.5 μM): did not show any significant reversible or time-dependent inhibition; also recorded: No significant reversible or time-dependent inhibition; also recorded: No significant reversible inhibition; also recorded: low potential to cause direct or time-dependent inhibition
activity (CYP2C8 [3]): 93%
IC50 (CYP2C9): > 12.5 µM
IC50 (CYP2C19 [4]): > 12.5 µM
% Control activity at (CYP2B6; direct inhibition, substrate Bupropion, concentration not given, duplicates): 94%
reversible (direct) inhibition (in words) (CYP2B6; risdiplam up to 12.5 μM): did not show any significant reversible or time-dependent inhibition; also recorded: No significant reversible or time-dependent inhibition; also recorded: No significant reversible inhibition; also recorded: low potential to cause direct or time-dependent inhibition
% Control activity at (CYP1A2 [5]; direct inhibition, substrate Phenacetin, concentration not given, duplicates): 101%
reversible (direct) inhibition (in words) (CYP1A2 [5]; risdiplam up to 12.5 μM): did not show any significant reversible or time-dependent inhibition; also recorded: No significant reversible or time-dependent inhibition; also recorded: No significant reversible inhibition; also recorded: low potential to cause direct or time-dependent inhibition
% Control activity at (CYP2C8 [6]; direct inhibition, substrate Amodiaquine, concentration not given, duplicates): 91%
reversible (direct) inhibition (in words) (CYP2C8 [6]; risdiplam up to 12.5 μM): did not show any significant reversible or time-dependent inhibition; also recorded: No significant reversible or time-dependent inhibition; also recorded: No significant reversible inhibition; also recorded: low potential to cause direct or time-dependent inhibition
time-dependent inhibition (in words) (CYP2C19 [7]): did not show any significant reversible or time-dependent inhibition; also recorded: No significant reversible or time-dependent inhibition; also recorded: No significant time-dependent inhibition; also recorded: low potential to cause direct or time-dependent inhibition
% Control activity at (CYP3A4; direct inhibition, substrate Testosterone, concentration not given, duplicates): 46%
% Remaining (CYP3A4; CYP3A4-Midazolam Activity, risdiplam 0.10 μM, duplicates): 100% and 96%
% Remaining (CYP3A4; CYP3A4-Midazolam Activity, risdiplam 0.20 μM, duplicates): 99% and 102%
% Remaining (CYP3A4; CYP3A4-Midazolam Activity, risdiplam 0.50 μM, duplicates): 101% and 100%
% Remaining (CYP3A4; CYP3A4-Midazolam Activity, risdiplam 1.3 μM, duplicates): 108% and 91%
% Remaining (CYP3A4; CYP3A4-Midazolam Activity, risdiplam 3.2 μM, duplicates): 94% and 97%
% Remaining (CYP3A4; CYP3A4-Midazolam Activity, risdiplam 8.0 μM, duplicates): 84% and 83%
% Remaining (CYP3A4; CYP3A4-Midazolam Activity, risdiplam 12.5 μM, duplicates): 72%
% Remaining (CYP3A4; CYP3A4-Testosterone Activity, risdiplam 0.10 μM, duplicates): 98%
% Remaining (CYP3A4; CYP3A4-Testosterone Activity, risdiplam 0.20 μM, duplicates): 98% and 96%
% Remaining (CYP3A4; CYP3A4-Testosterone Activity, risdiplam 0.50 μM, duplicates): 96% and 95%
% Remaining (CYP3A4; CYP3A4-Testosterone Activity, risdiplam 1.3 μM, duplicates): 93% and 92%
% Remaining (CYP3A4; CYP3A4-Testosterone Activity, risdiplam 3.2 μM, duplicates): 78% and 79%
% Remaining (CYP3A4; CYP3A4-Testosterone Activity, risdiplam 8.0 μM, duplicates): 58%
% Remaining (CYP3A4; CYP3A4-Testosterone Activity, risdiplam 12.5 μM, duplicates): 44% and 46%
maximal inhibition (CYP3A4; midazolam as substrate): 28%
maximal inhibition (CYP3A4; testosterone as substrate): 55%
IC50 (CYP3A4; human, microsomes, pH 7.4, IC50, direct, CYP3A4-Testosterone Activity (6β-hydroxylation), testosterone 50 μM): 11 µM
activity (CYP3A4; human, microsomes, substrate Midazolam, concentration not given, duplicates): 72%
activity (CYP3A4; human, microsomes, substrate Testosterone, concentration not given, duplicates): 44%
direct inhibition of CYP3A4/5 (in words) (CYP3A4; midazolam 1′-hydroxylase and testosterone 6β-hydroxylase, up to 12.5 μM): low potential to cause direct inhibition; also recorded: some inhibition
